Results published in patent US7452865B2, “Antagonistic analogs of GH RH (2003)” (The Administrare's of the Tulane Educational Fund, priority 2004, dated 2008).
Marks after values point to notes of the source that are not given here. Square brackets hold non-standard residues; d marks the D form. Peptide text beside a SMILES is read from it. * marks the point of attachment. Phe(4-amidino) = N=C(N)c1ccc(C[C@H](N)C(=O)O)cc1; Phe(4-Cl) = N[C@@H](Cc1ccc(Cl)cc1)C(=O)O; hArg = N=C(N)NCCCC[C@H](N)C(=O)O; Nle = CCCC[C@H](N)C(=O)O; Abu = CC[C@H](N)C(=O)O; PhAc = O=C(Cc1ccccc1)*

Assays:
[1] = tested on: hGH-RH(1-29)NH2 induced GH release; assay: Inhibition of GH release in superfused rat pituitary system; type: cell-based
Method in brief: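 GH output was quantified by double-antibody RIA in superfusates of rat pituitary cells. Peptides were applied for 9 min at various concentrations before a 3-min 1 nM hGH-RH(1-29)NH2 pulse, with further pulses 30–120 min later; net integral responses given as percent of the original response.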

[2] = tested on: HT-29 human colon cancer xenografts; assay: HT-29 human colon cancer xenografts in nude mice: tumor growth; type: in vivo; details: 10 μg/day s.c., 62 days
Procedure: HT-29 human colon cancers were transplanted sc. into male nude mice. 19 days after transplantation, the mice were divided into two groups of 10 animals each. and the treatment was started. Mice in the treatment group received single daily injections of Peptide 67 sc. at a dose of 10 μg/day for 62 days, while the control group was injected with the vehicle solvent. Tumors were measured regularly, and tumor volume was calculated. The mice were sacrificed at the end of experiment and tumor weights were measured.

CCCC[C@H](NC(=O)[C@@H](NC(=O)[C@H](CC(=O)O)NC(=O)[C@H](CCC(N)=O)NC(=O)[C@H](CC(C)C)NC(=O)[C@H](CC(C)C)NC(=O)[C@H](CCCCN)NC(=O)[C@H](CCCNC(=N)N)NC(=O)[C@H](C)NC(=O)[C@H](CO)NC(=O)[C@H](CC(C)C)NC(=O)[C@H](CCC(N)=O)NC(=O)[C@H](CC)NC(=O)[C@H](CC(C)C)NC(=O)[C@@H](NC(=O)[C@H](CCCCN)NC(=O)[C@H](CCCNC(=N)N)NC(=O)[C@H](Cc1ccc(OC)cc1)NC(=O)[C@H](Cc1ccc(C(=N)N)cc1)NC(=O)[C@H](CC(N)=O)NC(=O)[C@@H](NC(=O)[C@H](Cc1ccc(Cl)cc1)NC(=O)[C@@H](NC(=O)[C@H](C)NC(=O)[C@H](CC(=O)O)NC(=O)[C@@H](CCCNC(=N)N)NC(=O)[C@H](Cc1ccc(O)cc1)NC(=O)Cc1ccccc1)[C@@H](C)CC)[C@@H](C)O)C(C)C)[C@@H](C)CC)C(=O)N[C@H](CCCNC(=N)N)C(=O)N[C@@H](CCCCNC(=N)N)C(N)=O [Peptide 67, [PhAc-Tyr^1, D-Arg^2, Phe(pCl)^6, Amp^9, Tyr(Me)^10, Abu^15, Nle^27, D-Arg^28, Har^29]hGH-RH(1-29)NH2] (PhAc-Y[dR]DAI[Phe(4-Cl)]TN[Phe(4-amidino)]Y(Me)RKVL[Abu]QLSARKLLQDI[Nle][dR][hArg]-NH2)
GH response (% of control) 0 min ([1]; antagonist 30 nM, 1 nM hGH-RH(1-29)NH2 at 0 min): 28 % of control | GH response (% of control) 30 min ([1]; antagonist 30 nM, 1 nM hGH-RH(1-29)NH2 at 30 min): 15 % of control | GH response (% of control) 60 min ([1]; antagonist 30 nM, 1 nM hGH-RH(1-29)NH2 at 60 min): 18 % of control | GH response (% of control) 90 min ([1]; antagonist 30 nM, 1 nM hGH-RH(1-29)NH2 at 90 min): 20 % of control | GH response (% of control) 120 min ([1]; antagonist 30 nM, 1 nM hGH-RH(1-29)NH2 at 120 min): 23 % of control | endocrine antagonistic potency: inhibition of the GH release stimulated by hGH-RH(1-29)NH2 (in words) ([1]; general statement, in vitro and in vivo): high endocrine antagonistic potencies | Final tumor volume (mm^3) [2]: 1218 ± 320* mm^3 | Tumor weight [2]: 1434 ± 405 mg | inhibition in the volumes of HT-29 tumors ([2]; vs control group): 56.3% | inhibition in the weights of HT-29 tumors ([2]; vs control group): 53.9%
